Measurements from paper PMC4998957 (Nature, 2016).

Assays:
[1] = target: disulfide-stabilised HIV-1 capsid protein hexamer (CA_(Hexamer)) R18G (HIV-1); test: cross-linking
[2] = target: CAHexamer (disulfide-stabilised HIV-1 capsid hexamer) (Human immunodeficiency virus type 1 group M subtype B, UniProt P12493, A146C/E177C/M317A/W316A); type: binding
CAHexamer = CAHexamer (Human immunodeficiency virus type 1 group M subtype B, UniProt P12493, A146C/E177C/M317A/W316A); type: binding, HIV-1
HIV-1 capsid cores = test: Endogenous reverse transcription; type: biochemical; details: DNase I and RNase A 100 μg/ml, Benzonase 250 U/ml, 100 μM each dNTP, 16 h

Molecule: disulfide-stabilised HIV-1 capsid protein hexamer (CA_(Hexamer)) R18G (natural protein)
- stoichiometry N [1]: 6

Molecule: Cc1cn([C@H]2C[C@H](O)[C@@H](COP(=O)(O)OP(=O)(O)OP(=O)(O)O)O2)c(=O)[nH]c1=O [dTTP]
- effect of 1 mM (physiological) inorganic phosphate on hexamer binding ([2]; 2 nM fluorescein-labelled dTTP, 1 mM inorganic phosphate): no significant effect
- comparison of affinity of ribose and deoxyribose nucleoside triphosphates ([2]; titration of CAHexamer into labelled nucleotides): same affinity

Molecule: Nc1ccn([C@H]2C[C@H](O)[C@@H](COP(=O)(O)OP(=O)(O)OP(=O)(O)O)O2)c(=O)n1 [dCTP]
- on-rate (kon) (CAHexamer): > 2e+08 M⁻¹ s⁻¹
- half life of complex (CAHexamer; equivalent of the off-rate): 0.058 s
- off-rate (CAHexamer; fluorescent dCTP displaced with excess unlabeled dCTP (20 µM)): > 12 s⁻¹

B1: RNase A: nuclease (protein, UniProt P61823 27-150, looked up)
Ribonuclease pancreatic: KETAAAKFERQHMDSSTSAASSSNYCNQMMKSRNLTKDRCKPVNTFVHESLADVQAVCSQKNVACKNGQTNCYQSYSTMSITDCRETGSSKYPNCAYKTTQANKHIIVACEGNPYVPVHFDASV
- effect of nucleases on encapsidated reverse transcription (HIV-1 capsid cores): failed to prevent
